For 41 molecules, IC50 results are on record in US12336981B2, “Compounds and compositions for the inhibition of NAMPT” (Valo Health, Inc., priority 2010, dated 2025).

For one test, the system named is A2780 cells. The experiment in a line: In-vitro cell proliferation assay (SRB), A2780 cells. The format is cell-based. The note with it: Homo sapiens, A2780, 72 h, A2780 cells, 72 hours, read-out: A2780 IC50. An outline of the steps:
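Read-out is SRB absorbance at 570 nm on TCA-fixed cells after 72 hours of compound treatment at 37° C. in 5% CO2. Background from a media-only plate is subtracted, and % inhibition is interpolated between two tested concentrations.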

In a further test the target is T1, NAMPT (Homo sapiens, UniProt P43490).
T1 construct: His tag; host or cells: E. coli
T1 sequence (P43490 whole entry): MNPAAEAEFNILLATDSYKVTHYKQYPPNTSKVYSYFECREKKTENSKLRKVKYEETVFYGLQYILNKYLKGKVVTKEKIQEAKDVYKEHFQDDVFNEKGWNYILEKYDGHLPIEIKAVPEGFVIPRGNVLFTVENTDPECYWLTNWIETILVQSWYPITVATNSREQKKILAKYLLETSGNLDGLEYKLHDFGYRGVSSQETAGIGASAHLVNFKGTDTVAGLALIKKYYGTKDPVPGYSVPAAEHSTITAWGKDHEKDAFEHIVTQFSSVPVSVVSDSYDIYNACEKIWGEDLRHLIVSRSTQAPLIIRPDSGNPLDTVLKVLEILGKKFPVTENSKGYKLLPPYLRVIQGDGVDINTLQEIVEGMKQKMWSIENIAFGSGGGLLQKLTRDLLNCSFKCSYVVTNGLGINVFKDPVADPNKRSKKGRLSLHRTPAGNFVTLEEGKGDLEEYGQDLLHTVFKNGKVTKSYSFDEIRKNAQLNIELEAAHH
The experiment in a line: Biochemical inhibition assay: NAMPT enzymatic reaction, NMN quantified by mass spectrometry. As to conditions: read-out: Biochem IC50. An outline of the steps:
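Inhibition of E. coli-expressed His-tagged human NAMPT, measured as NMN formation by mass spectrometry after a 30 min room-temperature reaction containing 1 μM NAM, 100 μM PRPP and 2.5 mM ATP.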

Each structure is given as a SMILES string. Where two headings read alike, the source gives them in different places.

Regarding `O=C(NCc1ccc(S(=O)(=O)c2cncc(F)c2)cc1)c1cc2cnccc2[nH]1` [N-{[4-(5-fluoropyridine-3-sulfonyl)phenyl]methyl}-1H-pyrrolo[3,2-c]pyridine-2-carboxamide], the IC50 in the test on A2780 cells (SRB) stood at 13.6 nM; at NAMPT (NAMPT enzymatic assay) it was 71.3 nM.

For `COc1cc(S(=O)(=O)c2ccc(CNC(=O)c3cc4ccncc4o3)cc2)ccc1F`, the values for the IC50 in the test on A2780 cells (SRB) and on NAMPT (NAMPT enzymatic reaction) were 7 nM and 7.8 nM, respectively.

In the case of `Cc1cc(C)c(S(=O)(=O)c2ccc(CNC(=O)c3cnc4[nH]ncc4c3)cc2)cc1C` [N-({4-[(2,4,5-trimethylbenzene)sulfonyl]phenyl}methyl)-1H-pyrazolo[3,4-b]pyridine-5-carboxamide], the IC50 is 19.3 nM in the test with A2780 cells (SRB) and 31.3 nM on NAMPT (NAMPT enzymatic reaction).

Turning to `Cc1cccc(S(=O)(=O)c2ccc(CNC(=O)c3cc4cnccc4[nH]3)cc2)c1F`, the IC50 was 7 nM in the test with A2780 cells (SRB) and 75.8 nM on NAMPT (NAMPT enzymatic reaction).

Regarding `COc1ccc(F)cc1S(=O)(=O)c1ccc(CNC(=O)c2cc3ccncc3o2)cc1`, the IC50 in the test on A2780 cells (SRB) amounted to 12.4 nM; at NAMPT (NAMPT enzymatic reaction) it was 2.2 nM.

As for `CCCCOc1cccc(S(=O)(=O)c2ccc(CNC(=O)c3cc4ccncc4s3)cc2)c1`, the IC50 with A2780 cells (SRB) is 38.7 nM; on NAMPT (NAMPT enzymatic reaction), 3.3 nM.

`CCCn1cc(S(=O)(=O)c2ccc(CNC(=O)c3cc4ccncc4s3)cc2)cn1` [N-{[4-(1-propyl-1H-pyrazole-4-sulfonyl)phenyl]methyl}thieno[2,3-c]pyridine-2-carboxamide]: the IC50 was 1.6 nM with A2780 cells (SRB) and 1.9 nM at NAMPT (NAMPT enzymatic assay).

For `O=C(NCc1ccc(S(=O)(=O)c2ccnc(N3CCOCC3)c2Cl)cc1)c1cc2ccncc2s1` [N-({4-[3-chloro-2-(morpholin-4-yl)pyridine-4-sulfonyl]phenyl}methyl)thieno[2,3-c]pyridine-2-carboxamide], the IC50 in the test on A2780 cells (SRB) was determined as 1.8 nM; at NAMPT (NAMPT enzymatic assay), 8.5 nM.

Take `O=C(NCc1ccc(S(=O)(=O)c2cccc(N3CCCC3)c2)cc1)c1cnc2nccn2c1`: the figures for the IC50 in the test with A2780 cells (SRB) and at NAMPT (NAMPT enzymatic assay) were 4.1 nM and 2.5 nM, respectively.

As to `O=C(NCc1ccc(S(=O)(=O)c2cncc(F)c2)cc1)c1cnc2[nH]ncc2c1` [N-{[4-(5-fluoropyridine-3-sulfonyl)phenyl]methyl}-1H-pyrazolo[3,4-b]pyridine-5-carboxamide], the IC50 in the test on A2780 cells (SRB) was 25.4 nM; on NAMPT (NAMPT enzymatic assay), 79.2 nM.

`O=C(NCc1ccc(S(=O)(=O)c2ccc3ncccc3c2)cc1)c1cc2ccncc2s1` [N-{[4-(quinoline-6-sulfonyl)phenyl]methyl}thieno[2,3-c]pyridine-2-carboxamide]: the IC50 in the test with A2780 cells (SRB assay) was 0.9 nM; on NAMPT (NAMPT enzymatic reaction), 3 nM.

Regarding `Cc1nc(C)c(S(=O)(=O)c2ccc(CNC(=O)c3cc4ccncc4s3)cc2)s1` [N-{[4-(dimethyl-1,3-thiazole-5-sulfonyl)phenyl]methyl}thieno[2,3-c]pyridine-2-carboxamide], the IC50 was 3 nM in the test with A2780 cells (SRB) and 1.3 nM at NAMPT (NAMPT enzymatic assay).

On to `O=C(NCc1ccc(S(=O)(=O)c2ccc3nc(C(F)(F)F)cn3c2)cc1)c1cnc2[nH]ncc2c1` [N-({4-[2-(trifluoromethyl)imidazo[1,2-a]pyridine-6-sulfonyl]phenyl}methyl)-1H-pyrazolo[3,4-b]pyridine-5-carboxamide], for which the results for the IC50 in the test with A2780 cells (SRB) and at NAMPT (NAMPT enzymatic assay) were 33 nM and 49.7 nM, respectively.

As to `COc1ccc(S(=O)(=O)c2ccc(CNC(=O)c3cc4ccncc4s3)cc2)cc1` [N-({4-[(4-methoxybenzene)sulfonyl]phenyl}methyl)thieno[2,3-c]pyridine-2-carboxamide], the IC50 in the test on A2780 cells (SRB assay) was found to be 2.7 nM; at NAMPT (NAMPT enzymatic reaction), 5 nM.

In the case of `CCCn1cc(S(=O)(=O)c2ccc(CNC(=O)c3cc4cnccc4[nH]3)cc2)cn1` [N-{[4-(1-propyl-1H-pyrazole-4-sulfonyl)phenyl]methyl}-1H-pyrrolo[3,2-c]pyridine-2-carboxamide], the results for the IC50 in the test with A2780 cells (SRB) and on NAMPT (NAMPT enzymatic assay) were 5.9 nM and 14.9 nM, respectively.

For the molecule `CCCOc1ccc(S(=O)(=O)c2ccc(CNC(=O)c3cc4ccncc4o3)cc2)cc1`, the IC50 turned out to be 12 nM with A2780 cells (SRB) and 49.5 nM at NAMPT (NAMPT enzymatic reaction).

As for `COc1c(F)cccc1S(=O)(=O)c1ccc(CNC(=O)c2ccc3nccn3c2)cc1` [N-({4-[(3-fluoro-2-methoxybenzene)sulfonyl]phenyl}methyl)imidazo[1,2-a]pyridine-6-carboxamide], the results for the IC50 with A2780 cells (SRB) and at NAMPT (NAMPT enzymatic reaction) were 65 nM and 76.9 nM, respectively.

For `O=C(NCc1ccc(S(=O)(=O)c2ccc(OC(F)(F)F)c(F)c2)cc1)c1cc2ccncc2s1`, the IC50 in the test with A2780 cells (SRB) and at NAMPT (NAMPT enzymatic assay) was 11.5 nM throughout.

As to `CC(C)COc1cc(F)cc(S(=O)(=O)c2ccc(CNC(=O)c3cnc4nccn4c3)cc2)c1`, the figures for the IC50 with A2780 cells (SRB) and at NAMPT (NAMPT enzymatic assay) were 3.4 nM and 3.1 nM, respectively.

As for `O=C(NCc1ccc(S(=O)(=O)c2ccc(-c3ccccc3)cc2)cc1)c1cc2cnccc2[nH]1` [N-({4-[(4-phenylbenzene)sulfonyl]phenyl}methyl)-1H-pyrrolo[3,2-c]pyridine-2-carboxamide], the IC50 was found to be 13.3 nM in the test with A2780 cells (SRB) and 31 nM on NAMPT (NAMPT enzymatic reaction).

For the molecule `CCOc1cc(Cl)ccc1S(=O)(=O)c1ccc(CNC(=O)c2cc3ccncc3s2)cc1`, the IC50 is < 0.4 nM in the test with A2780 cells (SRB) and 2.4 nM at NAMPT (NAMPT enzymatic reaction).

Regarding `Cn1ncc2cc(S(=O)(=O)c3ccc(CNC(=O)c4ccc5nccn5c4)cc3)ccc21` [N-{[4-(1-methyl-1H-indazole-5-sulfonyl)phenyl]methyl}imidazo[1,2-a]pyridine-6-carboxamide], the IC50 with A2780 cells (SRB) stood at 1.6 nM; on NAMPT (NAMPT enzymatic assay) it was 4 nM.

Consider `O=C(NCc1ccc(S(=O)(=O)c2ccccc2OC(F)(F)F)cc1)c1cc2ccncc2o1`, for which the IC50 in the test on A2780 cells (SRB) was 14.6 nM; on NAMPT (NAMPT enzymatic assay) it was 8.6 nM.

On to `O=C(NCc1ccc(S(=O)(=O)c2cccc(Cl)c2)cc1)c1cnc2nccn2c1`, for which the IC50 with A2780 cells (SRB) was determined as 1.2 nM; at NAMPT (NAMPT enzymatic reaction), 1.3 nM.

Turning to `COc1ccc(NS(=O)(=O)c2ccc(CNC(=O)c3cc4cnccc4[nH]3)cc2)c(C)c1` [N-({4-[(4-methoxy-2-methylphenyl)sulfamoyl]phenyl}methyl)-1H-pyrrolo[3,2-c]pyridine-2-carboxamide], the IC50 is > 30000 nM in the test on A2780 cells (SRB assay) and 1450 nM on NAMPT (NAMPT enzymatic reaction).

`Cc1c(F)cccc1S(=O)(=O)c1ccc(CNC(=O)c2cnc3nccn3c2)cc1`: the IC50 in the test with A2780 cells (SRB) came out at 65.6 nM; on NAMPT (NAMPT enzymatic reaction), 8.1 nM.

In the case of `O=C(NCc1ccc(S(=O)(=O)c2cc(F)ccc2Cl)cc1)c1ccc2nccn2c1`, the figures for the IC50 in the test with A2780 cells (SRB) and at NAMPT (NAMPT enzymatic reaction) were 6.3 nM and 21 nM, respectively.

As to `O=C(NCc1ccc(S(=O)(=O)c2ccc(C(F)(F)F)c(Cl)c2)cc1)c1cnc2[nH]ncc2c1` [N-[(4-{[3-chloro-4-(trifluoromethyl)benzene]sulfonyl}phenyl)methyl]-1H-pyrazolo[3,4-b]pyridine-5-carboxamide], the IC50 in the test with A2780 cells (SRB) came to 26.4 nM; on NAMPT (NAMPT enzymatic assay), 84.3 nM.

In the case of `CCc1ccc(S(=O)(=O)c2ccc(CNC(=O)c3ccc4nccn4c3)cc2)cc1` [N-({4-[(4-ethylbenzene)sulfonyl]phenyl}methyl)imidazo[1,2-a]pyridine-6-carboxamide], the IC50 with A2780 cells (SRB) was 7.36 nM; at NAMPT (NAMPT enzymatic reaction), 16.5 nM.

For `CCCOc1ccc(S(=O)(=O)c2ccc(CNC(=O)c3cc4ccncc4s3)cc2)c(C)c1` [N-({4-[(2-methyl-4-propoxybenzene)sulfonyl]phenyl}methyl)thieno[2,3-c]pyridine-2-carboxamide], the IC50 in the test on A2780 cells (SRB) is 1.7 nM; at NAMPT (NAMPT enzymatic reaction) it was 12.9 nM.

Regarding `O=C(NCc1ccc(S(=O)(=O)c2ccc(OC(F)(F)F)c(F)c2)cc1)c1ccc2nccn2c1`, the IC50 worked out at 6.3 nM in the test on A2780 cells (SRB) and 8.4 nM on NAMPT (NAMPT enzymatic assay).

Regarding `N#Cc1ccccc1S(=O)(=O)c1ccc(CNC(=O)c2cc3ccncc3o2)cc1` [N-({4-[(2-cyanobenzene)sulfonyl]phenyl}methyl)furo[2,3-c]pyridine-2-carboxamide], the IC50 in the test on A2780 cells (SRB) stood at 63.5 nM; at NAMPT (NAMPT enzymatic reaction), 24.6 nM.

Turning to `CC(C)COc1cccc(S(=O)(=O)c2ccc(CNC(=O)c3cc4ccncc4o3)cc2)c1`, the IC50 in the test on A2780 cells (SRB) is 67.7 nM; on NAMPT (NAMPT enzymatic assay), 14.8 nM.

In the case of `O=C(NCc1ccc(S(=O)(=O)Nc2ccccc2N2CCCCC2)cc1)c1cc2cnccc2[nH]1` [N-[(4-{[2-(piperidin-1-yl)phenyl]sulfamoyl}phenyl)methyl]-1H-pyrrolo[3,2-c]pyridine-2-carboxamide], the figures for the IC50 in the test with A2780 cells (SRB assay) and on NAMPT (NAMPT enzymatic reaction) were 8 nM and 72 nM, respectively.

Turning to `Cc1cc(-n2cccn2)ccc1S(=O)(=O)c1ccc(CNC(=O)c2cc3cnccc3[nH]2)cc1` [N-[(4-{[2-methyl-4-(1H-pyrazol-1-yl)benzene]sulfonyl}phenyl)methyl]-1H-pyrrolo[3,2-c]pyridine-2-carboxamide], the IC50 in the test on A2780 cells (SRB assay) and on NAMPT (NAMPT enzymatic reaction) was 4 nM in each case.

With `COc1ccc(Cl)c(S(=O)(=O)c2ccc(CNC(=O)c3ccc4nccn4c3)cc2)c1`, the IC50 in the test on A2780 cells (SRB) was determined as 2.7 nM; at NAMPT (NAMPT enzymatic reaction) it was 5.6 nM.

As to `Cc1ccc(S(=O)(=O)c2ccc(CNC(=O)c3cc4cnccc4[nH]3)cc2)cc1` [N-({4-[(4-methylbenzene)sulfonyl]phenyl}methyl)-1H-pyrrolo[3,2-c]pyridine-2-carboxamide], the IC50 in the test on A2780 cells (SRB assay) was 9 nM; at NAMPT (NAMPT enzymatic reaction) it was 6 nM.

Turning to `O=C(NCc1ccc(S(=O)(=O)c2cc(F)cc(OCC(F)(F)F)c2)cc1)c1cnc2nccn2c1`, the IC50 in the test on A2780 cells (SRB) worked out at 1.5 nM; at NAMPT (NAMPT enzymatic assay), 1.9 nM.

As to `CCOc1ccc(S(=O)(=O)c2ccc(CNC(=O)c3cc4cnccc4[nH]3)cc2)cc1F`, the figures for the IC50 in the test on A2780 cells (SRB) and at NAMPT (NAMPT enzymatic reaction) were 5.4 nM and 20.5 nM, respectively.

With `COc1cc(Cl)cc(S(=O)(=O)c2ccc(CNC(=O)c3cnc4[nH]ncc4c3)cc2)c1`, the IC50 was 2.5 nM with A2780 cells (SRB) and 9.3 nM on NAMPT (NAMPT enzymatic reaction).

`Cc1cc(F)ccc1S(=O)(=O)c1ccc(CNC(=O)c2cnc3[nH]ncc3c2)cc1` [N-({4-[(4-fluoro-2-methylbenzene)sulfonyl]phenyl}methyl)-1H-pyrazolo[3,4-b]pyridine-5-carboxamide]: the IC50 is 98.3 nM in the test on A2780 cells (SRB) and 78.8 nM on NAMPT (NAMPT enzymatic reaction).
